Measured values as given in US10532052B2, “Combination of a 6-oxo-1,6-dihydro-pyridazine derivative having anti-cancer activity with an EGFR inhibitor” (Merck Patent GmbH, priority 2014, dated 2020).

Columns and labels:
[1] = test system: human DFCI081 NSCLC xenograft; conditions: background; due to the activated c-Met pathway; cited from earlier work
[2] = test system: human DFCI081 NSCLC xenograft; assay: human DFCI081 patient derived NSCLC xenograft (PDX) model; type: in vivo; conditions: for tumor response class / median tumor volume (TV) change: female NCr nude mice; for tumor response class: 100 mg/kg each agent orally daily up to 18 days; for median tumor volume (TV) change: s.c. DFCI081 tumors, 100 mg/kg orally daily up to 18 days
Method: Method: Female NCr nude mice (7 weeks old) where subcutaneously injected with human DFCI081 tumor cells and were divided into treatment groups (10 animals per group) after the tumors were established. […] Median tumor volume (TV) change in % were calculated and statistical analysis done with two way-RM ANOVA.

[3] = test system: human NSCLC HCC827-GR-T790M xenograft; type: in vivo; conditions: female NCr nude mice, 100 mg/kg each agent orally daily, day 14
Protocol: Background: The human NSCLC HCC827-GR-T790M is a EGFR del 19 mutant and c-Met amplified lung xenograft model which exogenous expression of the EGFR T790M resistant mutation.
Method: Female NCr nude mice (7 weeks old) where subcutaneously injected with human HCC827-GR-T790M tumor cells and were divided into treatment groups (10 animals per group) after the tumors were established. […] Median tumor volume (TV) change in % were calculated at day 14, where the vehicle group was terminated and statistical analysis done with two way-RM ANOVA.

Structure (SMILES)	resistance of the model to EGFR inhibitor [1]	day at which complete tumor regression/response was observed in all mice ([2]; 100 mg/kg each agent orally daily) [days]	tumor response class [2]	median tumor volume (TV) change [2] [%]	tumor response class [3]	median tumor volume change ([3]; s.c. HCC827-GR-T790M tumors) [%]
C#Cc1cccc(Nc2ncnc3cc(OCCOC)c(OCCOC)cc23)c1 [erlotinib]	resistant	–	–	–	–	–
CN1CCC(COc2cnc(-c3cccc(Cn4nc(-c5cccc(C#N)c5)ccc4=O)c3)nc2)CC1.Cl.O [3-(1-{3-[5-(1-Methyl-piperidin-4-ylmethoxy)-pyrimidin-2-yl]-benzyl}-6-oxo-1,6-dihydro-pyridazin-3-yl)-benzonitrile hydrochloride hydrate]	–	15	tumor regression	−100	–	–
C=CC(=O)Nc1cccc(Nc2nc(Nc3ccc(N4CCN(C(C)=O)CC4)cc3OC)ncc2C(F)(F)F)c1 [N-[3-[[2-[4-(4-acetylpiperazin-1-yl)-2-methoxy-anilino]-5-(trifluoromethyl)-pyrimidin-4-yl]amino]phenyl]prop-2-enamide]	–	–	tumor progressed	700	tumors progressed	81
